Where no end group is shown, it is not given here. [ ]: non-standard residue; d: D form. Lys(Me3) = C[N+](C)(C)CCCC[C@H](N)C(=O)O
Columns and labels:
[1] = system: mESCs; assay: Recovery of H3K27me1/2/3 in mESCs after tazemetostat treatment; assay type: cell-based, mouse; conditions: 10 μM for 7 days
[2] = target: core PRC2 (Homo sapiens, UniProt O75530+Q15910); assay: PRC2-core activity assay; assay type: biochemical; conditions: 50 μM peptide; histone H3 peptide (residues 21–44) substrate
Chain of core PRC2 (Q15910 whole entry, the tested form may be a part): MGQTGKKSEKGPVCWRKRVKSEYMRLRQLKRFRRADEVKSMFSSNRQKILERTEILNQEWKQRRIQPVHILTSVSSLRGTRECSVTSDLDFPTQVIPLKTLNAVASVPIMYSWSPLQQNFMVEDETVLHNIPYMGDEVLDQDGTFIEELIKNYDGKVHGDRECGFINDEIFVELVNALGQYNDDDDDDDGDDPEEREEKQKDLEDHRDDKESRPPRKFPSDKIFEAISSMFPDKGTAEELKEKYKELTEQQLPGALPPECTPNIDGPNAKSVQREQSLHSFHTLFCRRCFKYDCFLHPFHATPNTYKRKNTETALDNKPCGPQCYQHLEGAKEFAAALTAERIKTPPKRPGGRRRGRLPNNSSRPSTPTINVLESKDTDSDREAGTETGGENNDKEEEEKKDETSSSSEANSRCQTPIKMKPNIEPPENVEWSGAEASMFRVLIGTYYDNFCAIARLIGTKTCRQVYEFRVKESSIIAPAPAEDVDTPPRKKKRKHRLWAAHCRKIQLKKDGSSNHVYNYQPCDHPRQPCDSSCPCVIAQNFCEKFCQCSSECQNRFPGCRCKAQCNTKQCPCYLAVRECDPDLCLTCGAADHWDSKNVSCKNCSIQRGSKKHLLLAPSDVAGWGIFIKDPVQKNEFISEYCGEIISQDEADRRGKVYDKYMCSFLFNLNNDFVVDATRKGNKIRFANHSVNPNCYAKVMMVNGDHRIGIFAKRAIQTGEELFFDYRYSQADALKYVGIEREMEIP
Chain of core PRC2 (O75530 whole entry, the tested form may be a part): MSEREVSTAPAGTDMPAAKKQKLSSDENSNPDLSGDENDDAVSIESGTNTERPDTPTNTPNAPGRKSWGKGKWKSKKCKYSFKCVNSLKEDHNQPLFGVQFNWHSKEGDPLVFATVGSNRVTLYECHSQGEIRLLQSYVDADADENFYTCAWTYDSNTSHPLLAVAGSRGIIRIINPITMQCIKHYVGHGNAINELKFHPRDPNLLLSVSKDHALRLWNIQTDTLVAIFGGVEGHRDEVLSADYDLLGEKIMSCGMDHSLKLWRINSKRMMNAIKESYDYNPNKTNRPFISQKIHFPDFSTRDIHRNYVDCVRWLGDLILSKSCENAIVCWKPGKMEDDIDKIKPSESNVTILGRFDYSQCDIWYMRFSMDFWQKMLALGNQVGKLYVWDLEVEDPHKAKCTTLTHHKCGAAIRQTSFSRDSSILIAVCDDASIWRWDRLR
Chain of core PRC2 (Q15022 whole entry partner, the tested form may be a part): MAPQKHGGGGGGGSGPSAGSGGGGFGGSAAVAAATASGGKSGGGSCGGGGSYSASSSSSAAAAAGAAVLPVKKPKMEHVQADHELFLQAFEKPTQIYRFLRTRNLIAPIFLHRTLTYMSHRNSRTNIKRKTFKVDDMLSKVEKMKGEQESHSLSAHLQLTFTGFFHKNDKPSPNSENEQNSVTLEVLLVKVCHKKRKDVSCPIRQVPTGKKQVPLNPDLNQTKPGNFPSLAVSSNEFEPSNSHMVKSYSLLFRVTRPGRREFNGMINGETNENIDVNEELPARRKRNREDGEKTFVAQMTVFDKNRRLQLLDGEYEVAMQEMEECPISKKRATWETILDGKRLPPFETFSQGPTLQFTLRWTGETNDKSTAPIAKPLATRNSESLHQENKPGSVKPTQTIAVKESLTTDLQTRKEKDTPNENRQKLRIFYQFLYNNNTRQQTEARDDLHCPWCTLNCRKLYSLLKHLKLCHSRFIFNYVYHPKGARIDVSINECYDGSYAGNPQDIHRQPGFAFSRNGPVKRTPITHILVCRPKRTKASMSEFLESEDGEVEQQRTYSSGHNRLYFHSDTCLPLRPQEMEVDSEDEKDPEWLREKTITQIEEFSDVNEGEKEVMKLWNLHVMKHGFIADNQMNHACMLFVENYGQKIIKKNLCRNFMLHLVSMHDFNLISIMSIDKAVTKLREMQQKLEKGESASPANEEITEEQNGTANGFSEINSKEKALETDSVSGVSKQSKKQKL
Chain of core PRC2 (Q09028 whole entry partner, the tested form may be a part): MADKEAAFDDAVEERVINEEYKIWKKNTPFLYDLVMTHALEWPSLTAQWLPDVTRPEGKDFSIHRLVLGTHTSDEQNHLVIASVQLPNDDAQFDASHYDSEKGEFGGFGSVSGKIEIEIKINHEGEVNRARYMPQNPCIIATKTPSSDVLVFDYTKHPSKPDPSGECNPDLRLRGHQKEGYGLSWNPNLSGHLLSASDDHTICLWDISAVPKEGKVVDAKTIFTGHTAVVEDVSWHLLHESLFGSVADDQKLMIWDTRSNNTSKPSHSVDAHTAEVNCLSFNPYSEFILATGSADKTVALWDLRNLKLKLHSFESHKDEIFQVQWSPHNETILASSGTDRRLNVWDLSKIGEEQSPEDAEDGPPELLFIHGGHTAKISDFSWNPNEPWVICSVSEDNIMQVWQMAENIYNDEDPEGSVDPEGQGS

| PRC2 activity (%) [2] | Compound | depletion of H3K27me1/2/3 [1] |
| --- | --- | --- |
|  | CCN(c1cc(-c2ccc(CN3CCOCC3)cc2)cc(C(=O)NCc2c(C)cc(C)[nH]c2=O)c1C)C1CCOCC1 [tazemostat, tazemetostat] | completely depleted |
| 583±28% | KAAR[Lys(Me3)]SAPA [compound 2] |  |
| 485±93% | TKAAR[Lys(Me3)]SA [compound 4] |  |
